# In article PMC5592744 (Frontiers in Microbiology, 2017):
# Tests used:
# agrA gene = type: cell-based, Staphylococcus aureus
# S. aureus SrtA (WT-SrtA) = S. aureus SrtA (WT-SrtA) (Staphylococcus aureus, UniProt Q2FV99); experiment: biochemical
# [1] = test system: adhesion of S. aureus to Fn; type: cell-based, Staphylococcus aureus
# S. aureus [2] = experiment: microbe, parasite or virus in culture; type: cell-based; settings: Staphylococcus aureus, read-out: minimum inhibitory concentration (MIC)
# WT-SrtA = WT-SrtA (Staphylococcus aureus, UniProt Q2FV99); experiment: biochemical; type: binding
# WT-SrtA, sequence (Q2FV99 60-206): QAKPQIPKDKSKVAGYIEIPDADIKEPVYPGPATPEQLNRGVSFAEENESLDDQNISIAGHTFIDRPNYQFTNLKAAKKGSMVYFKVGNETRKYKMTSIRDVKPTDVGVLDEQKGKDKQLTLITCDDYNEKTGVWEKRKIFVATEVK
# S. aureus USA 300 = type: cell-based, Staphylococcus aureus
# SpA display in S. aureus = type: cell-based, Staphylococcus aureus
# A549 cells [3] = type: cell-based
# hla gene = type: cell-based, Staphylococcus aureus
# A549 cells [4] = test system: A549 cells
# [5] = test system: S. aureus biofilm formation; type: cell-based, Staphylococcus aureus
# [6] = test system: S. aureus invasion of J774 cells; type: cell-based, Staphylococcus aureus
# S. aureus [7] = test system: S. aureus; design: species or system C57BL/6J mice; settings: mouse, in vivo
# S. aureus SrtA (WT-SrtA), sequence (Q2FV99 60-206): as above
structure (smiles),measurement,setting,value
O=C(/C=C/c1ccccc1)c1ccccc1 [chalcone],transcription level of the agrA gene,agrA gene,down-regulated
same,IC50,S. aureus SrtA (WT-SrtA),53.2 µM
same,adhesion rate to Fn,[1],no inhibition was observed
same,MIC,S. aureus [2],> 4.86 mM
same,Kd,WT-SrtA,16.4 µM
same,growth of S. aureus USA 300,S. aureus USA 300,not visibly affected
same,SpA display,SpA display in S. aureus,significant reductions
same,Hla-induced A549 cell injury (Live/Dead),A549 cells [3],obvious reduction in cell injury
same,release of LDH into the supernatants,A549 cells [3],significantly decrease
same,transcription level of the hla gene,hla gene,down-regulated
same,cytotoxic effect in A549 cells,A549 cells [4],almost no cytotoxic effect
same,"biofilm formation, untreated vs. treated",[5],quite significant
same,quantity of bacteria entering J774 cells,[6],significantly decreased
same,survival rate vs. group without treatment,S. aureus [7],significantly higher
